Measured values reported in patent US20190124918A1, “BIOFILM FORMATION INHIBITOR AND BIOFILM FORMATION INHIBITING COMPOSITION” (KAO CORPORATION, priority 2016, published 2019).

Columns and labels:
[1] = system: Pseudomonas PAO1 strain (ATCC 15692); experiment: Amount of biofilm formed (crystal violet, OD570), 96-well microplate culture; format: cell-based; settings: Pseudomonas, read-out: BF inhibition (%); for inhibition at 22 ppm: final concentration 22 ppm; for inhibition at 44 ppm: final concentration 44 ppm; for inhibition at 89 ppm: final concentration 89 ppm; for inhibition at 133 ppm: final concentration 133 ppm; for inhibition at 155 ppm: final concentration 155 ppm; for inhibition at 177 ppm: final concentration 177 ppm
Method: Pseudomonas PAO1 strain (ATCC 15692) was subjected to stationary culture performed in LB culture medium (Lysogeny Broth; manufactured by Becton Dickinson) at 37° C. for 24 hours. The turbidity (OD600) of the culture solution was measured. The culture solution was diluted with Mueller Hinton Broth (BBL made) to prepare a suspension (15 mL) having a turbidity (OD600) of 1/10^6. […]
(§1) Growth inhibition rates relative to the control (ethanol alone) were calculated based on OD600 values measured and in accordance with the following expression. In addition, biofilm (BF) formation inhibition rates relative to the control (ethanol alone) were calculated based on OD570 values and in accordance with the following expression:
BF inhibition (%)={1−(compound addition group OD570/control group OD570)}×100
(§2) As a control, an ethanol solvent alone was used (EtOH control). The concentrations of test compounds in the ethanol solution were as follows: test compound 1: 20 mM, test compounds 2 to 7: 100 mM. To each of the wells of a 96-well microplate (351172; manufactured by Japan Becton Dickinson), 6 μL of DMSO (Tokyo Kasei) and an ethanol solution of each test compound (1 to 8 μL) were added and then the microplates were allowed to stand still at room temperature for 5 hours to evaporate ethanol. A suspension solution of a Pseudomonas microbe prepared in the same procedure as in Test Example 1, 1) was added in an amount of 145 μL per well and culture was initiated.
(§3) After the 96-well microplate was subjected to stationary culture at 30° C. for 24 hours, turbidity (OD600) was measured to check growth. Subsequently, individual wells were stained with 0.1% crystal violet and thoroughly washed twice with physiological saline. To each well, 200 μL of ethanol was added and the absorbance (OD570) was measured to obtain the amount of the biofilm formed. The growth inhibition rate and biofilm (BF) formation inhibition rate were calculated based on OD600 and OD570 values measured and in accordance with the expressions used in Test Example 2.

[2] = system: Pseudomonas PAO1 strain (ATCC 15692); experiment: Growth of test microbe (turbidity OD600), 96-well microplate culture; format: cell-based; settings: Pseudomonas; for inhibition at 22 ppm: final concentration 22 ppm; for inhibition at 44 ppm: final concentration 44 ppm; for inhibition at 89 ppm: final concentration 89 ppm; for inhibition at 133 ppm: final concentration 133 ppm; for inhibition at 155 ppm: final concentration 155 ppm; for inhibition at 177 ppm: final concentration 177 ppm
Method: Pseudomonas PAO1 strain (ATCC 15692) was subjected to stationary culture performed in LB culture medium (Lysogeny Broth; manufactured by Becton Dickinson) at 37° C. for 24 hours. The turbidity (OD600) of the culture solution was measured. The culture solution was diluted with Mueller Hinton Broth (BBL made) to prepare a suspension (15 mL) having a turbidity (OD600) of 1/10^6.
To each of the wells of a 96-well microplate (351172; manufactured by Japan Becton Dickinson), 6 μL of DMSO (Tokyo Chemical Industry Co. Ltd) and an ethanol solution (1 μL, 3 μL or 5 μL) of a test compound were added. After that, the microplate was allowed to stand still at room temperature for 5 hours to evaporate ethanol. The suspension of Pseudomonas microbe prepared in the above step 1) was added in an amount of 145 μL per well and culture was initiated. As the test compound, 2-methylhydroquinone (Sigma Aldrich) and p-toluquinone (Tokyo Kasei) were used. As a reference compound, sodium hypochlorite (manufactured by Wako Pure Chemical Industries Ltd.) was used. As a control, an ethanol solvent (EtOH control) alone was used. The concentration of the test compound in the ethanol solution is 1,000 ppm or 10,000 ppm and the final concentration of the test compound in the culture solution was about from 7 to 333 ppm.
After the 96-well microplate was subjected to stationary culture performed at 30° C. for 24 hours, turbidity (OD600) was measured to check growth. Subsequently, individual wells were stained with 0.1% crystal violet and thoroughly washed twice with physiological saline. To each well, 200 μL of ethanol was added and the absorbance (OD570) was measured to obtain the amount of the biofilm formed.
Compounds listed in Table 3 were each added to a test microbe and culture was conducted by the same procedure as in Test Example 1 and the amount of growth (OD600) and the amount of biofilm formed (OD570) were measured. For compounds a, b, c, f, h, i, J and k, 20 mM ethanol solutions were prepared; whereas for compounds d, e, g, 5 mM ethanol solutions were prepared. The solutions were each added to a 96-well microplate in an amount of 1 to 8 μL and evaluation was made. The final concentrations of the individual compounds are described in Table 3.
as §1
Growth inhibition (%)=(1−(compound addition group OD600/control group OD600))×100
as §2, §3

[3] = system: cooling water taken from a water cooling tower; experiment: Aqueous system model (annular reactor): amount of biofilm formed on test pieces (OD570); format: cell-based; settings: Test Example 5; same procedure as Test Example 4; solvent control finally beyond 1.0
Method: (§4) Biofilm formation inhibitory activity of p-toluquinone (Tokyo Kasei) was evaluated by an aqueous system model using an annular reactor (Art Science Co., Ltd.) having a 100 mL-volume culture tank. In the culture tank of the annular reactor, a cylindrical rotating body rotating at a speed of 160 rounds per minute was installed. To the rotating body, 12 test pieces were attached in advance. These test pieces were taken out at predetermined time intervals and biofilm formed on the test pieces was quantified. From a water cooling tower provided on a building rooftop and actually used, cooling water was taken and supplied to the annular reactor culture vessel (maintained at 30° C.) at a flow rate of 10 mL per minute; at the same time, an ethanol solution (15 g/L) of p-toluquinone was separately supplied to the annular reactor culture vessel by a syringe pump YSP-201 (manufactured by YMC) at a flow rate of 10 μL per minute (p-toluquinone concentration in cooling water in the culture tank was 15 ppm). The test pieces (n=2) taken out from the culture tank at predetermined time intervals were stained with 0.1% crystal violet, thoroughly washed twice with physiological saline and recovered in ethanol (15 mL). The absorbance (OD570) was measured to obtain the amount of the biofilm formed. […] Thereafter, the number of bacteria cells was measured. […]

[4] = system: cooling water taken from a water cooling tower; experiment: Aqueous system model (annular reactor): number of bacterial cells in water at inlet and outlet (R2A agar); format: cell-based; settings: Test Example 5; same procedure as Test Example 4; solvent control also about 10^4
Method: as §4

[5] = Dissolution in solvent (MDG) when preparing compositions; format: physicochemical; settings: preparation of compositions
Method: (§5) Predetermined amounts of p-toluquinone and HEDP were weighed and solvent (MDG) was added to prepare a composition. Since citric acid and EDTA were not dissolved in MDG, they were directly added in culture solutions; at the same time, p-toluquinone was directly added to the culture solutions.

B. coli = settings: to B. coli; Non Patent Literature 4; cited from earlier work
[6] = system: biofilm-forming microbe isolated from cooling water taken from a water cooling tower; experiment: Biofilm inhibition test, quinone-based compound and chelating agent (OD570); format: cell-based; settings: Experiment No. 19: Toluquinone 0 ppm, Citric acid 10 ppm; 0 ppm/0 ppm gave 0.329
Method: A biofilm-forming microbe (microbe showing a OD570 value of 0.3 or more in the test for determining the amount of biofilm (the following section 2-4)) isolated from cooling water taken from a water cooling tower was cultured in R2A culture medium at 30° C. for 16 hours while shaking. The turbidity (OD600) of the resultant culture solution was measured. The culture solution was diluted with R2A culture medium to prepare a suspension of 10^3 cfu/mL.
as §5
The suspension of a test microbe prepared in the above section 2-1) was added in individual wells of a 96 well microplate in an amount of 150 μL, and then, the test solutions prepared in the above section 2-2) was each added and culture was initiated.
After the 96 well microplate was subjected to stationary culture performed at 30° C. for 48 hours, the culture solution was removed and the resultant microplate was washed with water. Subsequently, each well was stained with 0.1% crystal violet and 200 μL of ethanol was added. The absorbance (OD570) was measured to obtain the amount of biofilm (BF) formed.

CCCCc1ccc(O)cc1O [Compound 1, 4-Butylresorcinol] showed an inhibition at 22 ppm ([1]; Test Example 3) of 0.5%, an inhibition at 44 ppm ([1]; Test Example 3) of 18.3% and an inhibition at 89 ppm ([1]; Test Example 3) of 4.5%. It also gave an inhibition at 133 ppm ([1]; Test Example 3) of 12.9%, an inhibition at 155 ppm ([1]; Test Example 3) of 54.9% and an inhibition at 177 ppm ([1]; Test Example 3) of 45.9%. For the same molecule, the inhibition at 22 ppm ([2]; Test Example 3) was less than 0%, the inhibition at 44 ppm ([2]; Test Example 3) was less than 0% and the inhibition at 89 ppm ([2]; Test Example 3) was less than 0%. For the same molecule, the inhibition at 133 ppm ([2]; Test Example 3) was less than 0%, the inhibition at 155 ppm ([2]; Test Example 3) was 42.8% and the inhibition at 177 ppm ([2]; Test Example 3) was 32.7%. For the same molecule, the “amount of the biofilm formed (OD570)” value [3] was no more than 0.4 and the “number of bacterial cells at the inlet or outlet of the reactor” value [4] was “about 10^4 cells/mL”.
For O=C(O)CN(CCN(CC(=O)O)CC(=O)O)CC(=O)O [EDTA, Ethylenediaminetetraacetic acid], the “dissolution in MDG (diethylene glycol monomethyl ether)” value [5] was “not dissolved”.
For CC(C)(C)c1cc(O)ccc1O [c, tert-Butylhydroquinone], the “minimum inhibitory concentration (MIC)” value (B. coli) is listed as 512 ppm, the inhibition at 22 ppm [1] is listed as 34.8% and the inhibition at 44 ppm [1] is listed as 22.5%. The inhibition at 89 ppm [1] was 32.5%, the inhibition at 133 ppm [1] was 50% and the inhibition at 155 ppm [1] was 69.3%. The inhibition at 177 ppm [1] was 64.8%, the inhibition at 22 ppm [2] was less than 0% and the inhibition at 44 ppm [2] was 5.3%. For the same molecule, the inhibition at 89 ppm [2] was 9.5%, the inhibition at 133 ppm [2] was less than 0% and the inhibition at 155 ppm [2] was 11.8%. It also gave an inhibition at 177 ppm [2] of 13.3%.
With O=C(O)CC(O)(CC(=O)O)C(=O)O [Citric acid] the OD570 [6] was 0.261 and the “dissolution in MDG (diethylene glycol monomethyl ether)” value [5] was “not dissolved”.
